According to patent US7138361B2, “Herbicidal heterocycles” (E. I. du Pont de Nemours and Company, priority 2000, dated 2006):

Key:
Format in all cases: in vivo
[1] = tested on: johnsongrass (Sorghum halepense); experiment: Test C preemergence
In short: (§1)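 Each compound was dissolved in a non-phytotoxic solvent system containing a surfactant and sprayed either on freshly planted seeds (preemergence) or on young plants, 2 to 18 cm high (postemergence). Ratings after 12 to 14 greenhouse days ran from 0, no effect, to 100, complete control.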

[2] = tested on: corn (Zea mays); experiment: Test C preemergence
In short: as §1

[3] = tested on: woolly cupgrass (Eriochloa villosa); experiment: Test C preemergence
In short: as §1

[4] = tested on: bermudagrass (Cynodon dactylon); experiment: Test C preemergence
In short: as §1

[5] = tested on: Sunflower; experiment: Test C preemergence; details: Rate 125 g/ha; scale 0 to 100, 0 no effect, 100 complete control
[6] = tested on: velvetleaf (Abutilon theophrasti); experiment: Test C preemergence
In short: as §1

[7] = tested on: lambsquarters (Chenopodium album); experiment: Test C preemergence
In short: as §1

[8] = tested on: yellow nutsedge (Cyperus esculentus); experiment: Test C preemergence
In short: as §1

[9] = tested on: cocklebur (Xanthium strumarium); experiment: Test C preemergence
In short: as §1

[10] = tested on: crabgrass (Digitaria sanguinalis); experiment: Test C preemergence
In short: as §1

[11] = tested on: Nightshade; experiment: Test C preemergence
[12] = tested on: Surinam grass (Brachiaria decumbens); experiment: Test C preemergence
In short: as §1

[13] = tested on: pigweed (Amaranthus retroflexus); experiment: Test C preemergence
In short: as §1

[14] = tested on: giant foxtail (Setaria faberii); experiment: Test C preemergence
In short: as §1

[15] = tested on: kochia (Kochia scoparia); experiment: Test C preemergence
In short: as §1

[16] = tested on: soybean (Glycine max); experiment: Test C preemergence
In short: as §1

[17] = tested on: common ragweed (Ambrosia elatior); experiment: Test C preemergence
In short: as §1

[18] = tested on: goosegrass (Eleusine indica); experiment: Test C preemergence
In short: as §1

[19] = tested on: morningglory (Ipomoea hederacea); experiment: Test C preemergence
In short: as §1

[20] = tested on: Sunflower; experiment: Test C preemergence; details: Rate 500 g/ha, visual evaluation after 12 to 14 days
[21] = tested on: rice (Oryza saliva); experiment: Test C flooded paddy test; details: for Rice plant response rating: Flooded Paddy, scale 0 to 100, 0 no effect, 100 complete control; for Plant response rating, Rice: flooded paddy test, scale 0 to 100 (0 no effect, 100 complete control)
In short: (§2)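 Greenhouse-maintained for 12 to 14 days after treatment, the paddy plants (2-leaf stage at application) were scored visually against controls. A score of 0 denotes no effect and a score of 100 denotes complete control.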

[22] = tested on: barnyardgrass (Echinochloa crus-galli); experiment: Test C flooded paddy test; details: for Barnyardgrass plant response rating: Flooded Paddy, scale 0 to 100, 0 no effect, 100 complete control; for Plant response rating, Barnyardgrass: flooded paddy test, scale 0 to 100 (0 no effect, 100 complete control)
In short: as §2

[23] = Rate 125 g/ha, scale 0 to 100, 0 no effect, 100 complete control
[24] = preemergence, Rate 62 g/ha, scale 0 to 100
[25] = preemergence, Rate 500 g/ha, visual evaluation after 12 to 14 days
[26] = preemergence, Rate 250 g/ha, scale 0 to 100, 0 no effect, 100 complete control

CCC(C)Oc1cccc(N2CCC(n3ccc(C(C)(C)C)n3)C2=O)c1 (stereo not drawn) [Compound 127]
20: Plant response rating, Lambsquarters [7, 24] | Plant response rating (0 to 100), Cocklebur [9, 25] | Plant response rating, Surinam grass [12, 26] | Plant response rating (0 to 100), Morningglory [19, 25] | Barnyardgrass plant response rating ([22]; Rate 250 g/ha)
80: Plant response rating, Lambsquarters [7, 23]
30: Plant response rating (0 to 100), Corn [2, 25] | Plant response rating, Corn [2, 26] | Plant response rating (0 to 100), Velvetleaf [6, 25] | Plant response rating, Goosegrass [18, 23]
100: Plant response rating (0 to 100), Cupgrass, Woolly [3, 25] | Plant response rating, Bermudagrass [4, 23] | Plant response rating (0 to 100 where 0 is no effect and 100 is complete control), Bermudagrass [4, 25] | Plant response rating, Bermudagrass [4, 26] | Plant response rating (0 to 100), Lambsquarters [7, 25] | Plant response rating, Lambsquarters [7, 26] | Plant response rating (0 to 100), Crabgrass [10, 25] | Plant response rating, Crabgrass [10, 26] | Plant response rating (0 to 100), Surinam grass [12, 25] | Plant response rating (0 to 100), Foxtail, Giant [14, 25] | Plant response rating, Foxtail, Giant [14, 26] | Plant response rating (0 to 100), Goosegrass [18, 25] | Plant response rating, Goosegrass [18, 26]
10: Plant response rating, Velvetleaf [6, 26] | Plant response rating (0 to 100), Ragweed, Common [17, 25] | Plant response rating, Ragweed, Common [17, 26] | Plant response rating, Goosegrass [18, 24]
0: Plant response rating, Johnsongrass [1, 23] | Plant response rating, Johnsongrass [1, 24] | Plant response rating (0 to 100), Johnsongrass [1, 25] | Plant response rating, Johnsongrass [1, 26] | Plant response rating, Corn [2, 23] | Plant response rating, Corn [2, 24] | Plant response rating, Cupgrass, Woolly [3, 24] | Plant response rating, Sunflower [5] | Plant response rating, Velvetleaf [6, 23] | Plant response rating, Velvetleaf [6, 24] | Plant response rating, Nutsedge [8, 23] | Plant response rating, Nutsedge [8, 24] | Plant response rating (0 to 100), Nutsedge [8, 25] | Plant response rating, Nutsedge [8, 26] | Plant response rating, Cocklebur [9, 23] | Plant response rating, Cocklebur [9, 24] | Plant response rating, Cocklebur [9, 26] | Plant response rating, Nightshade ([11]; Rate 62 g/ha, scale 0 to 100) | Plant response rating, Nightshade [11, 23] | Plant response rating, Nightshade ([11]; Rate 250 g/ha, scale 0 to 100, 0 no effect, 100 complete control) | Plant response rating, Surinam grass [12, 23] | Plant response rating, Surinam grass [12, 24] | Plant response rating, Pigweed [13, 23] | Plant response rating, Pigweed [13, 24] | Plant response rating (0 to 100), Pigweed [13, 25] | Plant response rating, Pigweed [13, 26] | Plant response rating, Foxtail, Giant [14, 23] | Plant response rating, Foxtail, Giant [14, 24] | Plant response rating, Kochia [15, 23] | Plant response rating, Kochia [15, 24] | Plant response rating (0 to 100), Kochia [15, 25] | Plant response rating, Kochia [15, 26] | Plant response rating, Soybean [16, 23] | Plant response rating, Soybean [16, 24] | Plant response rating (0 to 100), Soybean [16, 25] | Plant response rating, Soybean [16, 26] | Plant response rating, Ragweed, Common [17, 23] | Plant response rating, Ragweed, Common [17, 24] | Plant response rating, Morningglory [19, 23] | Plant response rating, Morningglory [19, 24] | Plant response rating, Morningglory [19, 26] | Plant response rating (0 to 100), Sunflower [20] | Rice plant response rating ([21]; Rate 250 g/ha) | Rice plant response rating ([21]; Rate 500 g/ha) | Plant response rating, Rice ([21]; Rate 62 g/ha) | Plant response rating, Rice ([21]; Rate 125 g/ha) | Plant response rating, Barnyardgrass ([22]; Rate 62 g/ha) | Plant response rating, Barnyardgrass ([22]; Rate 125 g/ha)
50: Plant response rating, Cupgrass, Woolly [3, 23] | Plant response rating, Crabgrass [10, 24] | Barnyardgrass plant response rating ([22]; Rate 500 g/ha)
90: Plant response rating, Cupgrass, Woolly [3, 26] | Plant response rating, Bermudagrass [4, 24]
70: Plant response rating, Crabgrass [10, 23]
